The test system of one experiment is food intake. The experiment is described as follows: Food intake in overnight-fasted NIH/SW mice. It counts as in vivo. The note with it: for effect on food intake: 60 min. The protocol: Female NIH/Swiss mice (8-12 weeks old) were group housed with a 12:12 hour light:dark cycle with lights on at 0600. Water and a standard pelleted mouse chow diet were available ad libitum, except as noted. Animals were fasted and housed individually starting at approximately 1500 hrs, 1 day prior to experiment. The morning of the experiment (approx. 0630 hrs), all animals were weighed and divided into experimental groups so as to give the most similar weight distribution between groups. In a typical study, n=10 for the control group and at least 5 for each treatment group. At time=0 min, all animals were given an intraperitoneal injection of vehicle or compound in a volume of 5 ml/kg and immediately given a pre-weighed amount (10-15 g) of the standard chow. […] Significant treatment effects were identified by ANOVA (p<0.05). Where a significant difference existed, test means were compared to the control mean using Dunnett's test (Prism v2.01, GraphPad Software Inc., San Diego, Calif.).

The subject of a further experiment is gastric emptying. The experiment in a line: Gastric emptying in HSD rats (3H-3-O-methyl-glucose gavage). The format is in vivo. Conditions: for effect on gastric emptying: 40 minutes. The protocol: Male HSD rats, 180-215 g, were housed with a 12:12 hour light:dark cycle and fasted for 20 hrs (overnight). […] At t=1 min, a solution of 1 mL sterile water containing 5 μCi of ^3H-3-O-methyl-glucose was gavaged by oropharyngeal tube to conscious rats. Blood samples (10 μl) were collected 40 min after gavage and assayed for counts per minute (CPM) in plasma. To eliminate pain during tail vein sampling, 2% Lidocaine (0.1 ml) was injected 3-4 cm from the end of the tail (Gedulin, Jodka et al. Gastroenterology 108: […], 1995). Effects of the test compound were expressed as percent change relative to control, which was calculated as -100*(1-(mean value test rats/mean value controls)). Relative activity was defined as significant if p<0.05 as determined by ANOVA. Where a significant difference existed, test means were compared to the control mean using Dunnett's test (Prism v2.01, GraphPad Software Inc., San Diego, Calif.).

Where [1] appears, read: given peripherally, dose not given.

Consider three substances from patent US8273713B2 (Amylin Pharmaceuticals, LLC, priority 2000, dated 2012).

Ends that are not written are not given here.

Take “Ac-PYY[22-36] (Ac-ASLRHYLNLVTRQRY; ends and bridges not checked; listed as Homo sapiens)”: in the experiment with food intake (200 μg/kg intraperitoneal), the “effect on food intake” value was “inactive”. In addition, the “effect on gastric emptying” value in the experiment with gastric emptying (200 μg/kg intraperitoneal) is “inactive”.

Consider NPY[3-36], for which the “effect on food intake” value in the experiment on food intake (100 μg/kg intraperitoneal) was “inactive”. In addition, the “effect on gastric emptying” value with gastric emptying (500 μg/kg intraperitoneal) was “inactive”.

Consider Neuropeptide Y [NPY], for which the “effect on food intake” value in the experiment on food intake (100 μg/kg intraperitoneal) is “inactive”; with food intake (500 μg/kg intraperitoneal), “trend toward activity”. For the same substance, the “effect on food intake (summary)” value with food intake (setting [1]) is given as “modest decrease in food intake”. Further, the “effect on gastric emptying” value in the experiment on gastric emptying (500 μg/kg intraperitoneal) is “inactive”. The “effect on gastric emptying (summary)” value in the experiment on gastric emptying (setting [1]) is “completely inactive”.
